The source of these data is ChEMBL document CHEMBL1130066, “Toward a novel metal-based chemotherapy against tropical diseases. 3. Synthesis and antimalarial activity in vitro and in vivo of the new gold-chloroquine complex [Au(PPh3)(CQ)]PF6” (J Med Chem, 1997).

The subject of assay [1] is Mus musculus. Nature of the assay: In vivo activity against Plasmodium berghei parasitaemia. The format is functional.
For assay [2], the system named is Plasmodium falciparum. Nature of the assay: In vitro growth inhibition as IC50 against chloroquine-resistant Plasmodium falciparum FcB1. The format is functional, organism-based.
Assay [3] relates to Plasmodium falciparum. As to the kind of experiment: In vitro growth inhibition as IC50 against chloroquine-resistant Plasmodium falciparum FcB2. The format is functional, organism-based.
The subject of assay [4] is Mus musculus. As to the kind of experiment: In vivo activity against Plasmodium berghei parasitaemia. The format is functional, organism-based.

In general, IC50 refers to the point on the concentration scale where inhibition reaches its midpoint. Read a high IC50 as weaker potency.

Consider `CCN(CC)CCCC(C)Nc1ccnc2cc(Cl)ccc12.O=P(O)(O)O.O=P(O)(O)O` (centres undefined) [CHLOROQUINE PHOSPHATE], for which, in the assay with Mus musculus [1], the Parasitemia worked out at 25%. Take “4N-(4-diethylamino-1-methylbutyl)-7-chloro-4-quinolinamine 1-N-[Au(PPh3)] compound with PF6- [listing 1 of 2 here]”: the values for the IC50 in the assay on Plasmodium falciparum [2] and in the assay on Plasmodium falciparum [3] were 0.0051 µM and 0.023 µM, respectively. For the compound “4N-(4-diethylamino-1-methylbutyl)-7-chloro-4-quinolinamine 1-N-[Au(PPh3)] compound with PF6- [listing 2 of 2 here]”, in the assay on Mus musculus [4], the Parasitemia came out at 7%.
